Source: ChEMBL document CHEMBL3885881, “DrugMatrix”

Species: Rattus norvegicus
Assay: DrugMatrix - Regimen: Daily Repeat
Type: toxicity, organism-based, Sprague-Dawley
Design: regimen Daily Repeat, gender Male, age 6-8 weeks
Conditions: in vivo, po, route oral GAVAGE, vehicle 100 % WATER; for ABSOLUTE BASOPHIL / ABSOLUTE EOSINOPHIL / ABSOLUTE LYMPHOCYTE / ABSOLUTE MONOCYTE / ABSOLUTE SEGMENTED NEUTROPHIL / BASOPHIL / EOSINOPHIL / ERYTHROCYTE COUNT / HEMATOCRIT / HEMOGLOBIN / LEUKOCYTE COUNT / LYMPHOCYTE / MEAN CORPUSCULAR HEMOGLOBIN / MEAN CORPUSCULAR HEMOGLOBIN CONCENTRATION / MEAN CORPUSCULAR VOLUME / MONOCYTE / NEUTROPHIL / NUCLEATED RED BLOOD CELLS / PLATELET COUNT: tissue Blood; for ALANINE AMINOTRANSFERASE / ALBUMIN / ALKALINE PHOSPHATASE / ASPARTATE AMINOTRANSFERASE / BLOOD UREA NITROGEN / CARBON DIOXIDE / CHLORIDE / CHOLESTEROL / CREATINE PHOSPHOKINASE / CREATININE / GLUCOSE / LACTATE DEHYDROGENASE / LIPASE / PHOSPHORUS / POTASSIUM / SODIUM / TOTAL BILIRUBIN / TOTAL PROTEIN / URIC ACID: tissue Plasma
[1] = 0 mg/kg, 72 h, dose level Control, time 3 day
[2] = 0 mg/kg, 120 h, dose level Control, time 5 day
[3] = 19.5 mg/kg, 72 h, dose level Low, time 3 day

For `CN1CCC[C@H]1c1cccnc1` [NICOTINE], the “ABSOLUTE BASOPHIL” value [1] was 0 CELLS/uL, the “ABSOLUTE EOSINOPHIL” value [1] was 0 CELLS/uL and the “ABSOLUTE LYMPHOCYTE” value [1] was 10386.33 CELLS/uL. The “ABSOLUTE MONOCYTE” value [1] was 88.5 CELLS/uL, the “ABSOLUTE SEGMENTED NEUTROPHIL” value [1] was 1008.5 CELLS/uL and the BASOPHIL [1] was 0%. The EOSINOPHIL [1] was 0%, the “ERYTHROCYTE COUNT” value [1] was 5.16 x10E6/uL and the HEMATOCRIT [1] was 32.43%. For the same compound, the HEMOGLOBIN [1] was 12.98 G/DL, the “LEUKOCYTE COUNT” value [1] was 11.48 x10E3/uL and the LYMPHOCYTE [1] was 92.33%. For the same compound, the “MEAN CORPUSCULAR HEMOGLOBIN” value [1] was 25.23 pg, the “MEAN CORPUSCULAR HEMOGLOBIN CONCENTRATION” value [1] was 40.08 G/DL and the “MEAN CORPUSCULAR VOLUME” value [1] was 62.95 fL. For the same compound, the MONOCYTE [1] was 0.67%, the NEUTROPHIL [1] was 7% and the “NUCLEATED RED BLOOD CELLS” value [1] was 0 /100WBC. For the same compound, the “PLATELET COUNT” value [1] was 1016.67 x10E3/uL, the “ALANINE AMINOTRANSFERASE” value [1] was 62.17 u/L and the ALBUMIN [1] was 3.95 G/DL. For the same compound, the “ALKALINE PHOSPHATASE” value [1] was 363.5 u/L, the “ASPARTATE AMINOTRANSFERASE” value [1] was 118 u/L and the “BLOOD UREA NITROGEN” value [1] was 14.5 mg/dL. For the same compound, the “CARBON DIOXIDE” value [1] was 22.83 mmol/L, the CHLORIDE [1] was 100.67 MEQ/L and the CHOLESTEROL [1] was 66 mg/dL. The “CREATINE PHOSPHOKINASE” value [1] was 1308.83 u/L, the CREATININE [1] was 0.22 mg/dL and the GLUCOSE [1] was 187.5 mg/dL. The “LACTATE DEHYDROGENASE” value [1] was 380.17 u/L, the LIPASE [1] was 16.17 u/L and the PHOSPHORUS [1] was 14.27 mg/dL. The POTASSIUM [1] was 6.8 MEQ/L, the SODIUM [1] was 142.53 MEQ/L and the “TOTAL BILIRUBIN” value [1] was 0.2 mg/dL. The “TOTAL PROTEIN” value [1] was 5.68 G/DL, the “URIC ACID” value [1] was 2.87 mg/dL and the “ABSOLUTE BASOPHIL” value [2] was 0 CELLS/uL. The “ABSOLUTE EOSINOPHIL” value [2] was 80 CELLS/uL, the “ABSOLUTE LYMPHOCYTE” value [2] was 13301.33 CELLS/uL and the “ABSOLUTE MONOCYTE” value [2] was 180.83 CELLS/uL. The “ABSOLUTE SEGMENTED NEUTROPHIL” value [2] was 1187.83 CELLS/uL, the BASOPHIL [2] was 0% and the EOSINOPHIL [2] was 0.5%. For the same compound, the “ERYTHROCYTE COUNT” value [2] was 5.54 x10E6/uL, the HEMATOCRIT [2] was 35.65% and the HEMOGLOBIN [2] was 14.22 G/DL. For the same compound, the “LEUKOCYTE COUNT” value [2] was 14.75 x10E3/uL, the LYMPHOCYTE [2] was 90.67% and the “MEAN CORPUSCULAR HEMOGLOBIN” value [2] was 25.65 pg. For the same compound, the “MEAN CORPUSCULAR HEMOGLOBIN CONCENTRATION” value [2] was 39.88 G/DL, the “MEAN CORPUSCULAR VOLUME” value [2] was 64.35 fL and the MONOCYTE [2] was 1%. The NEUTROPHIL [2] was 7.83%, the “NUCLEATED RED BLOOD CELLS” value [2] was 0.17 /100WBC and the “PLATELET COUNT” value [2] was 1285.33 x10E3/uL. For the same compound, the “ALANINE AMINOTRANSFERASE” value [2] was 51.67 u/L, the ALBUMIN [2] was 4.08 G/DL and the “ALKALINE PHOSPHATASE” value [2] was 391.5 u/L. The “ASPARTATE AMINOTRANSFERASE” value [2] was 99.5 u/L, the “BLOOD UREA NITROGEN” value [2] was 15.5 mg/dL and the “CARBON DIOXIDE” value [2] was 28.33 mmol/L. For the same compound, the CHLORIDE [2] was 101.83 MEQ/L, the CHOLESTEROL [2] was 67.83 mg/dL and the “CREATINE PHOSPHOKINASE” value [2] was 771.33 u/L. The CREATININE [2] was 0.23 mg/dL, the GLUCOSE [2] was 156.5 mg/dL and the “LACTATE DEHYDROGENASE” value [2] was 544.33 u/L. For the same compound, the LIPASE [2] was 10.17 u/L, the PHOSPHORUS [2] was 12.03 mg/dL and the POTASSIUM [2] was 6.81 MEQ/L. The SODIUM [2] was 144.13 MEQ/L, the “TOTAL BILIRUBIN” value [2] was 0.22 mg/dL and the “TOTAL PROTEIN” value [2] was 6 G/DL. The “URIC ACID” value [2] was 2.18 mg/dL, the “ABSOLUTE BASOPHIL” value [3] was 0 CELLS/uL and the “ABSOLUTE EOSINOPHIL” value [3] was 274 CELLS/uL. For the same compound, the “ABSOLUTE LYMPHOCYTE” value [3] was 12164.33 CELLS/uL, the “ABSOLUTE MONOCYTE” value [3] was 176.67 CELLS/uL and the “ABSOLUTE SEGMENTED NEUTROPHIL” value [3] was 1085 CELLS/uL. The BASOPHIL [3] was 0%, the EOSINOPHIL [3] was 2% and the “ERYTHROCYTE COUNT” value [3] was 5.66 x10E6/uL. For the same compound, the HEMATOCRIT [3] was 36.1%, the HEMOGLOBIN [3] was 14.13 G/DL and the “LEUKOCYTE COUNT” value [3] was 13.7 x10E3/uL. For the same compound, the LYMPHOCYTE [3] was 88.67%, the “MEAN CORPUSCULAR HEMOGLOBIN” value [3] was 24.97 pg and the “MEAN CORPUSCULAR HEMOGLOBIN CONCENTRATION” value [3] was 39.17 G/DL. For the same compound, the “MEAN CORPUSCULAR VOLUME” value [3] was 63.73 fL, the MONOCYTE [3] was 1.33% and the NEUTROPHIL [3] was 8%. The “NUCLEATED RED BLOOD CELLS” value [3] was 0 /100WBC, the “PLATELET COUNT” value [3] was 1341.67 x10E3/uL and the “ALANINE AMINOTRANSFERASE” value [3] was 53.67 u/L. For the same compound, the ALBUMIN [3] was 4.07 G/DL, the “ALKALINE PHOSPHATASE” value [3] was 372.67 u/L and the “ASPARTATE AMINOTRANSFERASE” value [3] was 86.33 u/L. The “BLOOD UREA NITROGEN” value [3] was 14 mg/dL, the “CARBON DIOXIDE” value [3] was 22 mmol/L and the CHLORIDE [3] was 103 MEQ/L. For the same compound, the CHOLESTEROL [3] was 69 mg/dL, the “CREATINE PHOSPHOKINASE” value [3] was 441.67 u/L and the CREATININE [3] was 0.28 mg/dL. The GLUCOSE [3] was 182.33 mg/dL, the “LACTATE DEHYDROGENASE” value [3] was 226.33 u/L and the LIPASE [3] was 10.67 u/L. For the same compound, the PHOSPHORUS [3] was 12.5 mg/dL, the POTASSIUM [3] was 5.92 MEQ/L and the SODIUM [3] was 144.87 MEQ/L. The “TOTAL BILIRUBIN” value [3] was 0.2 mg/dL, the “TOTAL PROTEIN” value [3] was 5.77 G/DL and the “URIC ACID” value [3] was 1.67 mg/dL.
